Here are results for 79 compounds from the METLIN SMRT retention time set (Domingo-Almenara et al. 2019).

The nature of this data set: gradient 5% acetonitrile 3 min, to 50% in 2 min, to 85% in 15 min, held 3 min, 100 µL/min. To be noted: column: Zorbax Extend-C18 2.1 x 50 mm; eluents: water / acetonitrile, 0.1% formic acid. The gist of the method:
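Mixtures of ~100 pure standards were chromatographed on a Zorbax Extend-C18 column (2.1 × 50 mm, 1.8 μm) at 100 μL/min using water and acetonitrile, each with 0.1% formic acid. Detection used a quadrupole time-of-flight mass spectrometer in positive and negative ionization mode, and data collection spanned 3 months. Retention time was obtained from adduct peaks picked computationally and each checked manually.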
For `CCN1c2cc(F)ccc2C(=O)NC12CCN(C(=O)c1ccccc1)CC2`, the RP-LC retention time is 742 s.
Then `N#CC1=C(SCC(=O)Nc2nccs2)NC2=C(C(=O)CCC2)C1c1ccco1` (centres undefined), with 674 s.
As for `COc1ccc(N2C(=O)C3N=NN(Cc4nc(-c5ccc(Cl)cc5)no4)C3C2=O)cc1OC` (centres undefined), the figure is 963 s.
As for `CCCCOc1ccc(-c2cc3c(N4CCN(CC)CC4)nccn3n2)cc1`, the figure is 775 s.
On to `Cc1sc(-c2cc(C(F)(F)F)[nH]n2)cc1S(=O)(=O)N1CC=C(c2ccccc2)CC1`, for which the RP-LC retention time was 1190 s.
As for `CCC(C(=O)Nc1ccc(-c2nc(Cn3cccn3)c(C)o2)cc1)c1ccccc1` (centres undefined), the figure is 962 s; as for `CCc1noc2nc(CCC(=O)NCc3ccco3)nc(N3CCCCC3)c12`, 829 s.
Then `Cc1c(Cl)cccc1S(=O)(=O)N1CCCC1c1nc(-c2ccc(F)cc2)no1` (centres undefined), with 1220 s; and `COc1cc(NC(=O)C2CCN(c3nccnc3Sc3ccccc3)CC2)cc(OC)c1OC`, with 984 s; and `CC(=O)N1CCC2(CC1)OC(=O)C(C)=C2C(=O)NCCCN1CCN(c2cc(C)ccc2C)CC1`, with 639 s.
As for `Cc1ccc(S(=O)(=O)NCC2CN(CC3CC3)CC23CCCCC3)c(C)c1` (centres undefined), the figure is 767 s; as for `Cc1cc(F)ccc1NS(=O)(=O)c1c[nH]c2ncccc12`, 735 s; as for `Cc1ccccc1Cn1nc2ccc(S(=O)(=O)N3CCCC3)cn2c1=O`, 891 s.
The compound `O=C1CCN(C(=O)CC2CCCCC2)CCCOCCN1` gave an RP-LC retention time of 646 s.
In turn, `COc1ccc2c(c1)c(CN1CCC(C(=O)NCCC3=CCCCC3)CC1)cn2C` showed an RP-LC retention time of 730 s.
Then `O=C(NCCc1ccccc1)N1CCC(OC2CCN(Cc3ccccc3)CC2)CC1`, with 652 s; and `O=C(CCCN1C(=O)c2cccc3cccc(c23)C1=O)NC1CCCCC1`, with 812 s; and `CC(C)CCNc1ccc(-c2nc(-c3ccc(F)cc3)no2)cn1`, with 1230 s.
As for `CCOC(=O)C1=C(CN2CCN(c3ccccn3)CC2)NC(=O)NC1c1ccc(Cl)cc1` (centres undefined), the figure is 643 s; as for `O=c1ccc(S(=O)(=O)N2CCOCC2)cn1Cc1ccc(F)cc1`, 759 s.
As for `c1csc(-c2[nH]ncc2CN2CCN(c3cnn4cnnc4c3)CC2)c1`, the figure is 835 s; as for `Cn1nccc1C(=O)Nc1ccsc1-c1nc(-c2ccc(Cl)cc2)no1`, 1430 s.
With `O=C(CSc1nnc2c3sc(N4CCCC4)nc3ncn12)Nc1ccc2c(c1)OCCO2`, the RP-LC retention time is 758 s.
Then `COC(=O)C1C(=O)C2=C(CC1C)NC(=O)CC2c1cccc(OC)c1` (centres undefined), with 726 s.
Then `O=c1n(Cc2ccc(F)cc2)nc2c(S(=O)(=O)N3CCCC3)cccn12`, with 806 s.
As for `O=C(NCc1ccc2c(c1)OCO2)C1Cn2cccc2C(=O)N1Cc1ccccc1` (centres undefined), the figure is 805 s; as for `Cc1cc(C)c(S(=O)(=O)N2CCCC(C(=O)Nc3ccc4c(c3)OCO4)C2)c(C)c1` (centres undefined), 974 s; as for `CCOC(=O)c1noc2ncnc(Nc3ccc(F)cc3F)c12`, 799 s.
With `CCc1cccc(C)c1Nc1c(-c2ccc(OC)c(OC)c2)nc2cnccn12`, the RP-LC retention time is 805 s.
Then `CN(CCc1noc(-c2ccc(C(=O)N3CCCCC3)cc2)n1)C(=O)c1ccc2c(c1)OCO2`, with 779 s; and `CCn1ccc(C(=O)N2CCC(Nc3ncnc4c3CCC4)CC2)n1`, with 553 s; and `COc1ccc(N2CC(c3noc(-c4ccc(OC)cc4C)n3)CC2=O)cc1` (centres undefined), with 992 s.
Then `Cc1ccc(C)c(N2C(=O)CN(S(C)(=O)=O)CC2(C)C(=O)NCc2ccccc2)c1` (centres undefined), with 809 s.
As for `COc1ccc(NC(=O)C2(C)Oc3cccnc3N(C)C2=O)cc1Cl` (centres undefined), the figure is 842 s; as for `Cn1ccc2cc(S(=O)(=O)N3CCCC(C(=O)NCCCN4CCCCCC4)C3)ccc21` (centres undefined), 668 s.
Regarding `c1cncc(-c2nc(-c3ccc(OC4CNC4)cc3)no2)c1`, the RP-LC retention time is 605 s.
As for `Cc1ccc(NC(=O)N2CCc3nc(-c4ccc(Cl)cc4)ncc3C2)cc1`, the figure is 783 s; as for `O=C(c1cn(-c2cc(N3CCCCC3)ncn2)cn1)N1CCN(c2ncccn2)CC1`, 785 s.
`COc1ccc(-n2ccn3cc(-c4ccc(OC)c(OC)c4)nc3c2=O)cc1Cl`: the RP-LC retention time stood at 780 s.
Then `C=CCNC(=O)C(=O)Nc1ccc2c(c1)N(C(=O)C(C)C)CCC2`, with 746 s; and `COCCc1noc(-c2ccccc2OC2CNC2)n1`, with 590 s; and `Cc1cc(-c2nnc(C3CCC3)o2)c(C)n1CC(=O)NCc1cccc(Cl)c1`, with 897 s.
Then `O=C(Cc1noc2ccccc12)NCCOc1ccc2nnc(-c3ccc(F)cc3)n2n1`, with 679 s; and `Cc1ccccc1-c1nnc(CSc2nnc(NC(=O)C(C)C)s2)o1`, with 843 s.
`COc1cccc(NC(=O)CN2CCc3[nH]c4c(OC)ccc(Cl)c4c(=O)c3C2)c1` returned an RP-LC retention time of 610 s.
As for `O=C(Nc1nccs1)C1CCN(C(=O)c2cc(-c3ccccc3)on2)CC1`, the figure is 732 s; as for `COc1ccc(-c2noc(CN3N=NC4C(=O)N(c5cccc(F)c5)C(=O)C43)n2)cc1OC` (centres undefined), 1260 s.
Then `CCOc1ccc(C(=O)N2CCC3(CC2)C(=O)N(CC)c2ccccc23)cc1OCC`, with 939 s; and `CC(C)C(=O)N1[C@H]2CC[C@@H]1c1cnc(-c3ccc(F)cc3)nc1C2`, with 871 s; and `Cc1nnc(NC(=O)CCn2cnc3ccccc3c2=O)s1`, with 588 s.
Then `Cc1ccc(CNc2cc(-n3ccnc3)ncn2)cc1C`, with 682 s.
The compound `O=[N+]([O-])c1ccc(-c2cn(-c3ccc(Cl)cc3)cn2)cc1` had an RP-LC retention time of 933 s.
As for `O=C(c1ccsc1)N1CCN(C(=O)c2cc(-c3ccccn3)n[nH]2)CC1`, the figure is 614 s; as for `O=C1COc2ccc(S(=O)(=O)N3CCC(C(=O)Nc4ccc(F)cc4F)CC3)cc2N1`, 763 s.
As for `CC(C)Cn1c(-c2cccc(C(=O)NC(C)C)c2)nc2cccnc21`, the figure is 763 s.
Compound `CCOC(=O)c1c(C)oc2ncnc(Nc3cc(C)ccc3OC)c12` gave an RP-LC retention time of 1260 s.
As for `O=C(CN1C(=O)COc2ccc(C(=O)N3CCc4ccccc4C3)cc21)N1CCCC1`, the figure is 763 s.
As for `Cc1ccc(-n2nc(N3CCN(C(=O)Nc4ccccc4Cl)CC3)ccc2=O)cc1`, the figure is 833 s; as for `Cn1cccc1-c1cc2n(n1)CCCN2C(=O)CCC(=O)N1CCc2ccccc2C1`, 809 s.
As for `O=C(NC1CCCC1)C1CCN(c2cncnc2N2CCCCC2)CC1`, the figure is 641 s; as for `CN(CCNC(=O)c1sc2ncccc2c1-n1cccc1)Cc1ccccc1`, 666 s.
`CC(=O)c1ccc(NC(=O)c2cc(-c3cccnc3)nc3ccccc23)cc1` yielded an RP-LC retention time of 732 s.
As for `CCc1ccc(CNC(=O)c2cn3c(n2)CCCC3)cc1`, the figure is 646 s; as for `COc1ccccc1-c1nc2cnccn2c1NCCC(=O)NC1CCCCC1`, 673 s; as for `O=C(Cc1ccc(Cl)cc1)Nc1nnc(SCc2nnc(-c3ccccc3)o2)s1`, 955 s.
As for `CCOc1ccc(S(=O)(=O)N2CCC(C(=O)N(CC)CC)CC2)cc1C`, the figure is 934 s.
Then `COC(=O)c1cc(OC)c(OC)cc1NC(=O)c1c(C)coc1C`, with 940 s; and `CCc1nc(N)n(CC(=O)Nc2ccc(C)cc2C)c(=O)c1C`, with 659 s; and `COc1ccccc1-c1csc(-c2nnn(-c3ccccc3)c2N)n1`, with 1070 s.
Compound `COCCN(Cc1ccc(Cl)cc1)Cc1cc(=O)n2ccc(C)cc2n1` gave an RP-LC retention time of 657 s.
Then `O=C(Nc1ccc2c(c1)OCCO2)C1CCCN(c2nccnc2Sc2ccccc2)C1` (centres undefined), with 1030 s; and `COc1ccc(-c2noc(C3CCCN3C(=O)Nc3ccc(C)c(C)c3)n2)cc1` (centres undefined), with 925 s.
Then `Cc1ccn2c(Nc3ccc4c(c3)OCCO4)c(-c3ccc(Cl)cc3)nc2c1`, with 717 s; and `Cn1cc(C(=O)NC2CCN(Cc3ccccc3)CC2)c2cccnc21`, with 594 s; and `CN1CCN(C(CNS(=O)(=O)c2cc(F)ccc2F)c2cccn2C)CC1` (centres undefined), with 580 s.
Then `COc1ccc(-c2nnc(-c3ccccc3)o2)cc1S(=O)(=O)N1CCCCC1`, with 1020 s; and `CCOC(=O)c1cc(S(=O)(=O)N2CCCC2C(=O)Nc2nc3ccc(OC)cc3s2)cn1C` (centres undefined), with 947 s; and `CCn1nc(C)c(CNC(=O)Nc2cc(OC)c(OC)c(OC)c2)c1C`, with 615 s.
`CN(C)c1cnc(-n2cc(NC(=O)CCCc3ccccc3)cn2)nc1` gave an RP-LC retention time of 724 s.
